Data reported in US11306081B2, “Phenylacetamides as inhibitors of rock” (BRISTOL-MYERS SQUIBB COMPANY, priority 2017, dated 2022).

Molecular target: ROCK2 (Homo sapiens (Human), UniProt O75116)
Test: ROCK assay (LABCHIP 3000 peptide phosphorylation assay)
Type: biochemical
Settings: 5 μM ATP, 1.5 μM peptide substrate, dose-response
Outline: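 Rho kinase variants in 20 mM HEPES pH 7.5, 20 mM MgCl2, 0.015% Brij-35, 4 mM DTT, 5 μM ATP, 1.5 μM FITC-AHA-AKRRRLSSLRA-OH peptide; DMSO <2%. EDTA-stopped; phosphorylated/non-phosphorylated peptide separated by microfluidic LabChip readout. Dose-response inhibition curve-fitted to give IC50.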

ROCK2, sequence (O75116 whole entry, species assumed): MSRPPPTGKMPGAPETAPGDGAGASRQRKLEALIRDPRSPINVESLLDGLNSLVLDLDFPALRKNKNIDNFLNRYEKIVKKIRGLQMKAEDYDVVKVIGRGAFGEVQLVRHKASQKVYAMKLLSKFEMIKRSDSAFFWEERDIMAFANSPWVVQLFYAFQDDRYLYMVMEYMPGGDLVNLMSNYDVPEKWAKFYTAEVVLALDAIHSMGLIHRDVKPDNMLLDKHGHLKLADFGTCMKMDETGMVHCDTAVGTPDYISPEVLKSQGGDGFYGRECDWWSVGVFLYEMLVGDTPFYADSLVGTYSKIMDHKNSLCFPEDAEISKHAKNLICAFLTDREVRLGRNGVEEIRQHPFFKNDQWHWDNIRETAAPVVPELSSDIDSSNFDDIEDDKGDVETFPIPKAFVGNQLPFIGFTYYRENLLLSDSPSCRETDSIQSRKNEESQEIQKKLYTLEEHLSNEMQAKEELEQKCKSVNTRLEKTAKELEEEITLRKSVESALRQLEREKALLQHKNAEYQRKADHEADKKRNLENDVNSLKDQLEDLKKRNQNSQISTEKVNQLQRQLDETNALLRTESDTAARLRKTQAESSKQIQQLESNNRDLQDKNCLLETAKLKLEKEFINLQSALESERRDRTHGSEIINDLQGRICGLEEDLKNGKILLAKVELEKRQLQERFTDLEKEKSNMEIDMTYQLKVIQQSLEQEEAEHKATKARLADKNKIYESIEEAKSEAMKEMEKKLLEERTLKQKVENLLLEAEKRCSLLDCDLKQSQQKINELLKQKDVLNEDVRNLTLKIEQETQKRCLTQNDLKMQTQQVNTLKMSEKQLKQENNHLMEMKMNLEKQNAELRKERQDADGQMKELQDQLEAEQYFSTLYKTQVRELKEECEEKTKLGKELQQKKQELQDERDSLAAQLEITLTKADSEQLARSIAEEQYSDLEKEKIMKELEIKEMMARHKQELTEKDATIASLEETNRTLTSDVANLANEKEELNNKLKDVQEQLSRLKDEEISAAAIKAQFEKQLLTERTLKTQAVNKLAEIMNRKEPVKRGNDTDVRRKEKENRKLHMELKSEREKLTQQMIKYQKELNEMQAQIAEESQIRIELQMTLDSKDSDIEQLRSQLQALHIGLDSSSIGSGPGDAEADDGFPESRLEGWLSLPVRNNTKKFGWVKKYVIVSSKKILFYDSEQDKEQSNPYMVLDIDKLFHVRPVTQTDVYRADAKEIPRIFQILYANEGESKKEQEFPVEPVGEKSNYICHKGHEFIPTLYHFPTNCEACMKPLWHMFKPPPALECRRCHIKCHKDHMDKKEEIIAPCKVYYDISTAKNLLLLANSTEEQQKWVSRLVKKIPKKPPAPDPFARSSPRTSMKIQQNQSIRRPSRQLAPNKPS

Question: How did the IC50 turn out when `COc1ccc2nc(NC(=O)Cc3ccc(Oc4ncccc4C(N)=O)c(F)c3)n(CC3CC3)c2c1` [Example 160, 2-(4-(2-((1-(cyclopropyl-methyl)-6-methoxy-1H-benzo[d]-imidazol-2-yl)-amino)-2-oxoethyl)-2-fluorophenoxy)-nicotinamide] was run?
Answer: 39 nM

Question: `Cn1nccc1-c1ccn2nc(NC(=O)Cc3ccc(Oc4ncccc4C(N)=O)c(F)c3)nc2c1` [Example 137, 2-(2-fluoro-4-(2-((7-(1-methyl-1H-pyrazol-5-yl)-[1,2,4]-triazolo[1,5-a]pyridin-2-yl)amino)-2-oxoethyl)-phenoxy) nicotinamide] was tested. Which IC50 did it give?
Answer: 13 nM

Question: `N#Cc1cccc(-c2csc(NC(=O)Cc3ccc(Oc4ncccc4C(N)=O)cc3)n2)c1` [Example 063, 2-(4-(2-((4-(3-cyanophenyl)thia-zol-2-yl)amino)-2-oxoethyl)phenoxy) nicotinamide] was tested. Which IC50 did it give?
Answer: 339 nM

Question: How did the IC50 turn out when `COc1cccn2nc(NC(=O)Cc3ccc(Oc4ncccc4C(N)=O)c(F)c3)nc12` [Example 094, 2-(2-fluoro-4-(2-((8-methoxy-[1,2,4]triazolo[1,5-a]pyridin-2-yl)amino)-2-oxoethyl)phenoxy) nicotinamide] was run?
Answer: 15 nM

Question: How did the IC50 turn out when `NC(=O)c1cccnc1Oc1ccc(CC(=O)Nc2nc(-c3cccc4oc(=O)ccc34)cs2)cc1` [Example 061, 2-(4-(2-oxo-2-((4-(2-oxo-2H-chromen-5-yl)thiazol-2-yl)amino)ethyl)phe-noxy)nicotinamide] was run?
Answer: 506 nM

Question: Which IC50 does the source give for `CC(C)(O)COc1ccc2sc(NC(=O)Cc3ccc(Oc4ncccc4C(N)=O)cc3)nc2c1` [Example 107, 2-(4-(2-((5-(2-hydroxy-2-methylpropoxy)benzo[d]thiazol-2-yl)amino)-2-oxoethyl)phenoxy)nicotinamide] here?
Answer: 29 nM

Question: How did the IC50 turn out when `CP(C)(=O)c1ccc2sc(NC(=O)Cc3ccc(Oc4ncccc4C(N)=O)c(F)c3)nc2c1` [Example 146] was run?
Answer: 132 nM

Question: Which IC50 does the source give for `NC(=O)c1cccnc1Oc1ccc(CC(=O)Nc2nc3cccc(Cl)c3[nH]2)cc1` [Example 073, 2-(4-(2-((7-chloro-1H-benzo[d]imidazol-2-yl)amino)-2-oxoethyl)phenoxy) nicotinamide] here?
Answer: 244 nM

Question: `COC(=O)c1ccc2c(c1)nc(NC(=O)Cc1ccc(Oc3ncccc3C(N)=O)cc1)n2C` [Example 074, methyl 2-(2-(4-((3-carbamoylpyridin-2-yl)oxy)phenyl)acet-amido)-1-methyl-1H-benzo[d]imidazole-5-carboxylate] was tested. Which IC50 did it give?
Answer: 1100 nM

Question: For `NC(=O)c1cccnc1Oc1ccc(CC(=O)Nc2nc3cc(F)ccn3n2)cc1F` [Example 142, 2-(2-fluoro-4-(2-((7-fluoro-[1,2,4]triazolo[1,5-a]pyridin-2-yl)amino)-2-oxoethyl)phenoxy)nicotinamide], which IC50 is on record?
Answer: 72 nM

Question: With `NC(=O)c1cccnc1Oc1ccc(CC(=O)Nc2nnc(-c3cnccn3)s2)cc1F` [Example 011, 2-(2-fluoro-4-(2-oxo-2-((5-(pyrazin-2-yl)-1,3,4-thiadiazol-2yl)amino)ethyl)phe-noxy) nicotinamide] as the compound, how does the IC50 read?
Answer: 150 nM

Question: How did the IC50 turn out when `COc1ccc(Cc2nnc(NC(=O)Cc3ccc(Oc4ncccc4C(N)=O)c(F)c3)s2)cc1OC` [Example 093, 2-(4-(2-((5-(3,4-dimethoxybenzyl)-1,3,4-thiadiazol-2-yl)amino)-2-oxoethyl)-2-fluorophenoxy)nico-tinamide] was run?
Answer: 213 nM

Question: Which IC50 does the source give for `NC(=O)c1cccnc1Oc1ccc(CC(=O)Nc2nc3cc(-c4cc[nH]c(=O)c4)ccc3s2)cc1F` [Example 024, 2-(2-fluoro-4-(2-oxo-2-((5-(2-oxo-1,2-dihydropyridin-4-yl)benzo[d]thiazol-2-yl)amino)ethyl)phe-noxy)nicotinamide] here?
Answer: 8 nM

Question: Which IC50 does the source give for `NC(=O)c1cccnc1Oc1ccc(CC(=O)Nc2nc3ccc(C(F)(F)F)cn3n2)cc1F` [Example 129, 2-(2-fluoro-4-(2-oxo-2-((6-(trifluoromethyl)-[1,2,4]triazolo-[1,5-a]pyridin-2-yl)amino)ethyl)-phenoxy)nicotin-amide] here?
Answer: 69 nM

Question: With `Cc1sc(NC(=O)Cc2ccc(Oc3ncccc3C(N)=O)c(F)c2)nc1C1CC1` [Example 046, 2-(4-(2-((4-cyclopropyl-5-methylthiazol-2-yl)amino)-2-oxoethyl)-2-fluorophenoxy)nicotin-amide] as the compound, how does the IC50 read?
Answer: 22 nM

Question: `Cc1nc2sccn2c1-c1csc(NC(=O)Cc2ccc(Oc3ncccc3C(N)=O)c(Cl)c2)n1` [Example 081, 2-(2-chloro-4-(2-((4-(6-methylimidazo[2,1-b]thiazol-5-yl)thiazol-2-yl)amino)-2-oxoethyl)phenoxy) nicotinamide] was tested. Which IC50 did it give?
Answer: 59 nM

Question: For `COc1ncc(-c2nc(NC(=O)Cc3ccc(Oc4ncccc4C(N)=O)c(F)c3)sc2C)cn1` [Example 040, 2-(2-fluoro-4-(2-((4-(2-methoxypyrimidin-5-yl)-5-methylthiazol-2-yl)amino)-2-oxoethyl)phenoxy)nico-tinamide], which IC50 is on record?
Answer: 99 nM

Question: Which IC50 does the source give for `NC(=O)c1cccnc1Oc1ccc(CC(=O)Nc2ccn(-c3ccc(C(F)(F)F)cn3)n2)cc1F` [Example 100, 2-(2-fluoro-4-(2-oxo-2-((1-(5-(trifluoromethyl)pyridin-2-yl)-1H-pyrazol-3-yl)amino)ethyl)phe-noxy)nicotinamide] here?
Answer: 191 nM

Question: With `NC(=O)c1cccnc1Oc1ccc(CC(=O)Nc2nc3ccc(F)cc3n2CC2CC2)cc1F` [Example 168, 2-(4-(2-((1-(cyclopropyl-methyl)-6-fluoro-1H-benzo[d]-imidazol-2-yl)-amino)-2-oxo-ethyl)-2-fluoro-phenoxy)nicotin-amide] as the compound, how does the IC50 read?
Answer: 18 nM

Question: With `CC(C)(O)COc1ccc2nc(NC(=O)Cc3ccc(Oc4ncccc4C(N)=O)c(F)c3)n(CC3CC3)c2c1` [Example 178, 2-(4-(2-((1-(cyclopropylmethyl)-6-(2-hydroxy-2-methylpropoxy)-1H-benzo[d]imidazol-2-yl)amino)-2-oxoethyl)-2-fluorophenoxy)nicotinamide] as the compound, how does the IC50 read?
Answer: 14 nM

Question: `NC(=O)c1cccnc1Oc1ccc(CC(=O)Nc2nc3ccc(OCc4ccccc4)cc3n2CC2CC2)cc1F` [Example 170, 2-(4-(2-((6-(benzyloxy)-1-(cyclo-propylmethyl)-1H-benzo[d]-imidazol-2-yl)-amino)-2-oxo-ethyl)-2-fluoro-phenoxy)nicotin-amide] was tested. Which IC50 did it give?
Answer: 31 nM

Question: How did the IC50 turn out when `Cc1ccc2nc(NC(=O)Cc3ccc(Oc4ncccc4C(N)=O)c(F)c3)nn2c1C` [Example 131, 2-(4-(2-((5,6-dimethyl-[1,2,4]-triazolo[1,5-a]-pyridin-2-yl)-amino)-2-oxoethyl)-2-fluorophenoxy)-nicotinamide] was run?
Answer: 129 nM

Question: Which IC50 does the source give for `Cc1sc(NC(=O)Cc2ccc(Oc3ncccc3C(N)=O)c(F)c2)nc1-c1ccnn1C` [Example 086, 2-(2-fluoro-4-(2-((5-methyl-4-(1-methyl-1H-pyrazol-5-yl)thiazol-2-yl)amino)-2-oxoethyl)phenoxy) nicotinamide] here?
Answer: 137 nM

Question: Which IC50 does the source give for `NC(=O)c1cccnc1Oc1ccc(CC(=O)Nc2nc3ccc(F)cc3n2CC(F)F)cc1F` [Example 166, 2-(4-(2-((1-(2,2-difluoroethyl)-6-fluoro-1H-benzo[d]-imidazol-2-yl)-amino)-2-oxo-ethyl)-2-fluoro-phenoxy)nicotin-amide] here?
Answer: 24 nM

Question: Which IC50 does the source give for `Cc1sc(NC(=O)Cc2ccc(Oc3ncccc3C(N)=O)c(F)c2)nc1-c1cccc(C#N)n1` [Example 045, 2-(4-(2-((4-(6-cyanopyridin-2-yl)-5-methylthiazol-2-yl)amino)-2-oxoethyl)-2-fluorophenoxy)nicotin-amide] here?
Answer: 21 nM

Question: `NC(=O)c1cccnc1Oc1ccc(CC(=O)Nc2nc3ccccc3n2CC2CCC2)cc1F` [Example 152, 2-(4-(2-((1-(cyclobutylmethyl)-1H-benzo[d]imidazol-2-yl)amino)-2-oxoethyl)-2-fluorophenoxy)nicotinamide] was tested. Which IC50 did it give?
Answer: 55 nM

Question: `Cc1sc(NC(=O)Cc2ccc(Oc3ncccc3C(N)=O)c(F)c2)nc1-c1ccc(S(=O)(=O)C(C)C)cc1` [Example 048, 2-(2-fluoro-4-(2-((4-(4-(isopropylsulfonyl)phe-nyl)-5-methylthiazol-2-yl)amino)-2-oxoethyl)phenoxy)nico-tinamide] was tested. Which IC50 did it give?
Answer: 112 nM

Question: With `NC(=O)c1cccnc1Oc1ccc(CC(=O)Nc2nc(-c3cc[nH]c(=O)c3)cs2)cc1F` [Example 018, 2-(2-fluoro-4-(2-oxo-2-((4-(2-oxo-1,2-dihydropyridin-4-yl)thiazol-2-yl)amino)ethyl)phenoxy)nicotinamide] as the compound, how does the IC50 read?
Answer: 245 nM

Question: How did the IC50 turn out when `NC(=O)c1cccnc1Oc1ccc(CC(=O)Nc2nc(C3CC3)ns2)cc1F` [Example 101, 2-(4-(2-((3-cyclopropyl-1,2,4-thiadiazol-5-yl)amino)-2-oxoethyl)-2-fluorophenoxy)nico-tinamide] was run?
Answer: 261 nM

Question: For `NC(=O)c1cccnc1Oc1ccc(CC(=O)Nc2nc3c(F)cccn3n2)cc1F` [Example 127, 2-(2-fluoro-4-(2-((8-fluoro-[1,2,4]-triazolo[1,5-a]-pyridin-2-yl)amino)-2-oxoethyl)phenoxy)-nicotinamide], which IC50 is on record?
Answer: 127 nM

Question: For `NC(=O)c1cccnc1Oc1ccc(CC(=O)Nc2nc3ccc(OC(F)F)nc3s2)cc1Cl` [Example 121, 2-(2-chloro-4-(2-((5-(difluoro-methoxy)thiazolo-[5,4-b]pyridin-2-yl)amino)-2-oxoethyl)phenoxy)-nicotinamide], which IC50 is on record?
Answer: 45 nM

Question: `Cc1sc(NC(=O)Cc2ccc(Oc3ncccc3C(N)=O)cc2)nc1-c1ccc(F)cc1` [Example 078, 2-(4-(2-((4-(4-fluorophenyl)-5-methylthiazol-2-yl)amino)-2-oxoethyl)phenoxy) nicotinamide] was tested. Which IC50 did it give?
Answer: 96 nM

Question: With `Cc1cccc(-c2nc(NC(=O)Cc3ccc(Oc4ncccc4C(N)=O)c(Cl)c3)sc2C)n1` [Example 022, 2-(2-chloro-4-(2-((5-methyl-4-(6-methylpyridin-2-yl)thiazol-2-yl)amino)-2-oxoethyl)phenoxy)nicotinamide] as the compound, how does the IC50 read?
Answer: 41 nM

Question: With `COc1ccc2sc(NC(=O)Cc3ccc(Oc4ncccc4C(N)=O)c(OC)c3)nc2c1` [Example 117, 2-(2-methoxy-4-(2-((5-methoxybenzo[d]thiazol-2-yl)amino)-2-oxoethyl)phenoxy)nicotinamide] as the compound, how does the IC50 read?
Answer: 139 nM
